{"source": "paper PMC7818505", "about": "(Journal of Clinical Pharmacology, 2020)", "key": {"CYP3A4 [1]": {"system": "CYP3A4", "assay": "Phase 1 clinical DDI study, midazolam probe with or without relacorilant", "assay_type": "in vivo, human"}, "CYP2C8": {"target": "T1, CYP2C8 (Homo sapiens, UniProt P10632)", "T1 sequence (P10632 1-490)": "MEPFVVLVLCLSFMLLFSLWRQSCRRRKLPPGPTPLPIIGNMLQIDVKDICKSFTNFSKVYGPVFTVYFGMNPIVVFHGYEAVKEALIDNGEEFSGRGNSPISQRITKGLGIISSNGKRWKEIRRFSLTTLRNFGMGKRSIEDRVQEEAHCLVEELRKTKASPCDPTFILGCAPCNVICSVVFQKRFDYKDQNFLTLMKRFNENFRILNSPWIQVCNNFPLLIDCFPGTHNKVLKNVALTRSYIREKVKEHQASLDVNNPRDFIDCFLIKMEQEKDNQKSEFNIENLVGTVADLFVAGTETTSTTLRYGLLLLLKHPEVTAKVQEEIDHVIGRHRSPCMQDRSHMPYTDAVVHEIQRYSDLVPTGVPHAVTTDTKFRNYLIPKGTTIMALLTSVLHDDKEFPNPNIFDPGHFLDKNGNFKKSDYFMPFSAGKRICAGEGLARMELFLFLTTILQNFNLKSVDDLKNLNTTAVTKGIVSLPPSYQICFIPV", "assay": "Phase 1 clinical DDI study, pioglitazone probe with or without relacorilant", "assay_type": "in vivo"}, "CYP2C9": {"target": "CYP2C9 (Homo sapiens, UniProt P11712)", "sequence (P11712 whole entry)": "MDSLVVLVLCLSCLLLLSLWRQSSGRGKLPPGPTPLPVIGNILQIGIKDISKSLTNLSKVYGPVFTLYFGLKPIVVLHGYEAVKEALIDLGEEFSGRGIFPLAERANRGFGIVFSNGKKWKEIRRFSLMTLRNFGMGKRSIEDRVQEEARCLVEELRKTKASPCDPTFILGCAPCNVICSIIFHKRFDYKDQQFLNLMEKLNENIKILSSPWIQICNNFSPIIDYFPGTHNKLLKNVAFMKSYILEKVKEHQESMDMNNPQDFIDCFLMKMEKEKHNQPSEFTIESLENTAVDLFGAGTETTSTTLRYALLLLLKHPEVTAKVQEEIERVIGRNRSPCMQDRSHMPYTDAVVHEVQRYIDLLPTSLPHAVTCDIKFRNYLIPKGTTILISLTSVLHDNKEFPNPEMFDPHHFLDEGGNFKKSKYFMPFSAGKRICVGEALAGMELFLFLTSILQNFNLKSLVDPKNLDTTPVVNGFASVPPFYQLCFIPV", "conditions": "background statement; cited from earlier work"}, "CYP1A2 messenger RNA": {"system": "CYP1A2 messenger RNA", "assay": "In vitro CYP induction assay, messenger RNA in cryopreserved human hepatocytes", "assay_type": "in vitro ADME", "conditions": "3 donors"}, "CYP2B6 messenger RNA": {"system": "CYP2B6 messenger RNA", "assay": "In vitro CYP induction assay, messenger RNA in cryopreserved human hepatocytes", "assay_type": "in vitro ADME", "conditions": "3 donors"}, "progesterone receptor": {"system": "progesterone receptor", "conditions": "background statement; cited from earlier work"}, "CYP3A4 [2]": {"target": "CYP3A4 (Homo sapiens, UniProt P08684)", "sequence (P08684 whole entry)": "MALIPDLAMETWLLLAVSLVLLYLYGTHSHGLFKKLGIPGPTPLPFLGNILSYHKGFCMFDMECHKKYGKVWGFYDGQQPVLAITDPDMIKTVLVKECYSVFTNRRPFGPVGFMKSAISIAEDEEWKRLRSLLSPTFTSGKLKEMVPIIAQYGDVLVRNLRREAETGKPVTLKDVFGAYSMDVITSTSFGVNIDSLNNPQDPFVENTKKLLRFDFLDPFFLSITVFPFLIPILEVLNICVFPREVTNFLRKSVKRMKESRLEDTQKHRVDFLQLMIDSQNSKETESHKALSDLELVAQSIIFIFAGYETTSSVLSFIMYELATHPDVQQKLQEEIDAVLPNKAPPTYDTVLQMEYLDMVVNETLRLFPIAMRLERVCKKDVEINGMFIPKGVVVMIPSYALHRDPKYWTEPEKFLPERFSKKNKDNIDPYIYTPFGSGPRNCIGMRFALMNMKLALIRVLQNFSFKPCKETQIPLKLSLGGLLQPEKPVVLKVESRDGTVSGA", "assay": "biochemical"}, "[3]": {"conditions": "both, human, plasma, po, 2.5 mg, probe midazolam"}, "[4]": {"conditions": "both, human, plasma, po, 15 mg, probe pioglitazone"}, "[5]": {"conditions": "pioglitazone + relacorilant (day 15) compared to pioglitazone alone (day 2)"}, "[6]": {"conditions": "pioglitazone + relacorilant (day 15) vs pioglitazone alone (day 2)"}}, "note": "pIC50: −log10 of the molar value."}
{"smiles": "Cc1ncc2n1-c1ccc(Cl)cc1C(c1ccccc1F)=NC2", "note": "[Midazolam, midazolam]", "values": [{"measurement": "AUC(0-inf)", "setting": "CYP3A4 [1]; both, human, plasma, po, 2.5 mg", "result": 36.4, "unit": "ng·h/mL"}, {"measurement": "AUC(0-t)", "setting": "CYP3A4 [1]; [3]", "result": 34.2, "unit": "ng·h/mL"}, {"measurement": "Cmax", "setting": "CYP3A4 [1]; [3]", "result": 12.7, "unit": "ng/mL"}]}
{"smiles": "CCc1ccc(CCOc2ccc(CC3SC(=O)NC3=O)cc2)nc1", "note": "(centres unmarked) [Pioglitazone, pioglitazone]", "values": [{"measurement": "AUC(0-inf)", "setting": "CYP2C8; both, human, plasma, po, 15 mg", "result": 5650, "unit": "ng·h/mL"}, {"measurement": "AUC(0-t)", "setting": "CYP2C8; [4]", "result": 5530, "unit": "ng·h/mL"}, {"measurement": "Cmax", "setting": "CYP2C8; [4]", "result": 525, "unit": "ng/mL"}, {"measurement": "Tmax", "setting": "CYP2C8; [4]", "result": 2, "unit": "h"}, {"measurement": "half-life", "setting": "CYP2C8; [4]", "result": 10.4, "unit": "h"}, {"measurement": "GLSM AUCinf lower with relacorilant than alone, pioglitazone", "setting": "CYP2C8; [5]", "result": "~25", "unit": "%"}, {"measurement": "GLSM AUClast lower with relacorilant than alone, pioglitazone", "setting": "CYP2C8; [5]", "result": "~25", "unit": "%"}, {"measurement": "GLSM Cmax lower with relacorilant than alone, pioglitazone", "setting": "CYP2C8; [5]", "result": "approximately 22%"}, {"measurement": "AUCinf GLSM Ratio (90%CI), pioglitazone", "setting": "CYP2C8; [6]", "result": "0.748 (0.681‐0.822)"}, {"measurement": "AUClast GLSM Ratio (90%CI), pioglitazone", "setting": "CYP2C8; [6]", "result": "0.747 (0.681‐0.820)"}, {"measurement": "Cmax GLSM Ratio (90%CI), pioglitazone", "setting": "CYP2C8; [6]", "result": "0.778 (0.697‐0.870)"}]}
{"smiles": "CC#C[C@]1(O)CC[C@H]2[C@@H]3CCC4=CC(=O)CCC4=C3[C@@H](c3ccc(N(C)C)cc3)C[C@@]21C", "note": "[mifepristone]", "values": [{"measurement": "CYP2C9 inhibition in vivo (in words)", "setting": "CYP2C9", "result": "inhibits both CYP2C8 and CYP2C9 in vivo"}]}
{"smiles": "Cn1cc(S(=O)(=O)N2CCC3=Cc4c(cnn4-c4ccc(F)cc4)C[C@]3(C(=O)c3cc(C(F)(F)F)ccn3)C2)cn1", "note": "[Relacorilant, (R)‐(1‐(4‐fluorophenyl)‐6‐((1‐methyl‐1H‐pyrazol‐4‐yl)sulfonyl)‐4,4a,5,6,7,8‐hexahydro‐1H‐pyrazolo[3,4‐g]isoquinolin‐4a‐yl)(4‐(trifluoromethyl)pyridin‐2‐yl)methanone]", "values": [{"measurement": "induction of CYP1A2 (in words)", "setting": "CYP1A2 messenger RNA", "result": "dose‐responsive induction of CYP1A2 was observed in all donors"}, {"measurement": "induction of CYP2B6 (in words)", "setting": "CYP2B6 messenger RNA", "result": "No induction of CYP2B6 was observed in any donor"}, {"measurement": "CYP3A inhibition in vivo (in words)", "setting": "CYP3A4 [1]; healthy subjects, relacorilant 350 mg once daily, midazolam probe", "result": "strong CYP3A inhibitor"}, {"measurement": "affinity for the progesterone receptor (in words)", "setting": "progesterone receptor", "result": "no affinity for the progesterone receptor"}, {"measurement": "pIC50", "setting": "CYP3A4 [2]", "result": 5.88}]}
